Laboratory results: patent US20240391926A1, “SPIROINDOLINONE COMPOUNDS AS Kv1.3 POTASSIUM SHAKER CHANNEL BLOCKERS” (D.E. Shaw Research, LLC, priority 2021, published 2024)
pIC50: −log10 of the molar value.

Target: T1, Kv1.3 potassium channel (Homo sapiens, UniProt P22001)
T1 construct: expressed in transfected cells
Test: Kv1.3 potassium channel blocker activity, automated whole-cell patch clamp (Patchliner) in CHO-K1 cells stably expressing Kv1.3
Type: cell-based
Conditions: 30 nM-100 μM
Method: This assay is used to evaluate the disclosed compounds' activities as Kv1.3 potassium channel blockers.
CHO-K1 cells stably expressing Kv1.3 were grown in DMEM containing 10% heat-inactivated FBS, 1 mM sodium pyruvate, 2 mM L-glutamine, and G418 (500 μg/ml). Cells were grown in culture flasks at 37° C. in a 5% CO2-humidified incubator.
The cells were bathed in an extracellular solution containing 140 mM NaCl, 4 mM KCl, 2 mM CaCl2), 1 mM MgCl2, 5 mM glucose, 10 mM HEPES; pH adjusted to 7.4 with NaOH; 295-305 mOsm. The internal solution contained 50 mM KCl, 10 mM NaCl, 60 mM KF, 20 mM EGTA, 10 mM HEPES; pH adjusted to 7.2 with KOH; 285 mOsm. All compounds were dissolved in DMSO at 30 mM. Compound stock solutions were freshly diluted with external solution to concentrations of 30 nM, 100 nM, 300 nM, 1 μM, 3 μM, 10 μM, 30 μM and 100 μM. The highest content of DMSO (0.3%) was present in 100 μM.
The currents were evoked by applying 100 ms depolarizing pulses from −90 mV (holding potential) to +40 mV were applied with 0.1 Hz frequency. Control (compound-free) and compound pulse trains for each compound concentration applied contained 20 pulses. 10-second breaks were used between pulse trains (see Table A below).
Whole-cell current recordings and compound application were enabled by means of an automated patch clamp platform Patchliner (Nanion Technologies GmbH). EPC 10 patch clamp amplifier (HEKA Elektronik Dr. Schulze GmbH) along with Patchmaster software (HEKA Elektronik Dr. Schulze GmbH) was used for data acquisition. Data were sampled at 10 kHz without filtering. Passive leak currents were subtracted online using a P/4 procedure (HEKA Elektronik Dr. Schulze GmbH). Increasing compound concentrations were applied consecutively to the same cell without washouts in between. Total compound incubation time before the next pulse train was not longer than 10 seconds. Peak current inhibition was observed during compound equilibration.
AUC and peak values were obtained with Patchmaster (HEKA Elektronik Dr. Schulze GmbH). To determine IC50, the last single pulse in the pulse train corresponding to a given compound concentration was used. Obtained AUC and peak values in the presence of compound were normalized to control values in the absence of compound. Using Origin (OridinLab), IC50 was derived from data fit to Hill equation: Icompound/Icontrol=(100−A)/(1+([compound]/IC50)nH)+A, where IC50 value is the concentration at which current inhibition is half-maximal, [compound] is the applied compound concentration, A is the fraction of current that is not blocked and nH is the Hill coefficient.

T1 sequence (P22001 whole entry): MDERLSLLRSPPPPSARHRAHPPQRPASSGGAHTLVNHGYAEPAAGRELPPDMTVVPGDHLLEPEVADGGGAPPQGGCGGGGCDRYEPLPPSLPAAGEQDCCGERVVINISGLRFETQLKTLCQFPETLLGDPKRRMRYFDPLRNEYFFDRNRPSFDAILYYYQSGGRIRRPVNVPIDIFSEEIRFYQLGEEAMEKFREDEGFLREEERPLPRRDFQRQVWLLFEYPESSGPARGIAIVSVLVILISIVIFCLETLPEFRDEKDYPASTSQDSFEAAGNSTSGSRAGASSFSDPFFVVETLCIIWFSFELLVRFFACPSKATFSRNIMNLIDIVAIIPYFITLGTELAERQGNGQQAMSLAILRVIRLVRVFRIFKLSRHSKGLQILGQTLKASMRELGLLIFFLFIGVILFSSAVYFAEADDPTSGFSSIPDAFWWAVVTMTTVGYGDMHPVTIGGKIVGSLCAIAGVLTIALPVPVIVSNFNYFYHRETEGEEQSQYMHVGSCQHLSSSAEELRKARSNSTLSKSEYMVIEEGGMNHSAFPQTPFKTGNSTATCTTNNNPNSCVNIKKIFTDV

Row | SMILES | pIC50
1 | CN(C)CC(=O)N1CCC2(C1)C(=O)Nc1cc(Cl)c(Cl)cc12 (centres unmarked) [Compound 7, 5,6-dichloro-1′-(dimethylglycyl)spiro[indoline-3,3′-pyrrolidin]-2-one] | > 5.52
2 | O=C([C@@H]1CNCCO1)N1CC[C@]2(C1)C(=O)Nc1cc(Cl)c(Cl)cc12 [Compound 11, (S)-5,6-dichloro-1′-((S)-morpholine-2-carbonyl)spiro[indoline-3,3′-pyrrolidin]-2-one] | > 5.52
3 | O=C(C[C@H](O)CO)N1CC[C@]2(C1)C(=O)Nc1cc(Cl)c(Cl)cc12 [Compound 76, (S)-5,6-dichloro-1′-((S)-3,4-dihydroxybutanoyl)spiro[indoline-3,3′-pyrrolidin]-2-one] | > 5.52
4 | O=C(c1cc[nH]c1)N1CC[C@]2(C1)C(=O)Nc1cc(Cl)c(Cl)cc12 [Compound 135, (S)-5,6-dichloro-1′-(1H-pyrrole-3-carbonyl)spiro[indoline-3,3′-pyrrolidin]-2-one] | > 6.00
5 | Cc1cc2c(cc1Cl)[C@@]1(CCN(C(=O)CO)C1)C(=O)N2 [Compound 119, (R)-5-chloro-1′-(2-hydroxyacetyl)-6-methylspiro[indoline-3,3′-pyrrolidin]-2-one] | > 5.00
6 | Nc1cnc(N2CC[C@]3(C2)C(=O)Nc2cc(Cl)c(Cl)cc23)cn1 [Compound 144, (3S)-1′-(5-aminopyrazin-2-yl)-5,6-dichloro-1H-spiro[indole-3,3′-pyrrolidin]-2-one] | > 6.00
7 | O=C([C@@H]1CC[C@@](O)(CO)C1)N1CC[C@]2(C1)C(=O)Nc1cc(Cl)c(Cl)cc12 (single isomer, unassigned; isomer 2) [Compound 96] | > 5.52
8 | Cc1c(Cl)cc2c(c1F)NC(=O)[C@@]21CCN(C(=O)CO)C1 [Compound 127, (S)-5-chloro-7-fluoro-1′-(2-hydroxyacetyl)-6-methylspiro[indoline-3,3′-pyrrolidin]-2-one] | > 6.00
9 | Nc1ccnc(N2CC[C@]3(C2)C(=O)Nc2cc(Cl)c(Cl)cc23)n1 [Compound 139, (S)-1′-(4-aminopyrimidin-2-yl)-5,6-dichlorospiro[indoline-3,3′-pyrrolidin]-2-one] | > 6.00
10 | O=C([C@@H]1CC[C@@H](CO)C1)N1CC[C@]2(C1)C(=O)Nc1cc(Cl)c(Cl)cc12 (single isomer, unassigned; isomer 2) [Compound 100] | > 5.52
11 | O=C1C[C@H](C(=O)N2CC[C@]3(C2)C(=O)Nc2cc(Cl)c(Cl)cc23)CN1 (single isomer, unassigned; isomer 1) [Compound 74] | > 6.00
12 | O=C(N1CC[C@]2(C1)C(=O)Nc1cc(Cl)c(Cl)cc12)C1(O)CC1 [Compound 85, (S)-5,6-dichloro-1′-(1-hydroxycyclopropane-1-carbonyl)spiro[indoline-3,3′-pyrrolidin]-2-one] | > 5.00
13 | O=C1Nc2cc(Cl)c(Cl)cc2[C@]12CCN(c1ccn[nH]1)C2 (single isomer, unassigned) [Compound 153] | > 5.52
14 | O=C(C[C@H]1CCCN1)N1CC[C@]2(C1)C(=O)Nc1cc(Cl)c(Cl)cc12 [Compound 59, (S)-5,6-dichloro-1′-(2-((R)-pyrrolidin-2-yl)acetyl)spiro[indoline-3,3′-pyrrolidin]-2-one] | > 5.52
15 | O=C([C@@H](O)CO)N1CC[C@]2(C1)C(=O)Nc1cc(Cl)c(Cl)cc12 [Compound 157, (S)-5,6-dichloro-1′-((S)-2,3-dihydroxypropanoyl)spiro[indoline-3,3′-pyrrolidin]-2-one] | > 6.00
16 | CC[C@@H](O)C(=O)N1CC[C@]2(C1)C(=O)Nc1cc(Cl)c(Cl)cc12 [Compound 92, (S)-5,6-dichloro-1′-((R)-2-hydroxybutanoyl)spiro[indoline-3,3′-pyrrolidin]-2-one] | > 5.00
17 | O=C(N1CC[C@]2(C1)C(=O)Nc1cc(Cl)c(Cl)cc12)[C@@]1(O)CCNC1 (single isomer, unassigned; isomer 2) [Compound 31] | > 5.52
18 | Nc1nnc(N2CC[C@]3(C2)C(=O)Nc2cc(Cl)c(Cl)cc23)o1 [Compound 132, (S)-1′-(5-amino-1,3,4-oxadiazol-2-yl)-5,6-dichlorospiro[indoline-3,3′-pyrrolidin]-2-one] | > 5.52

Row | SMILES | pIC50
19 | C[C@H]1CN(C(=O)CO)CC12C(=O)Nc1cc(Cl)c(Cl)cc12 (single isomer, unassigned; diastereoisomer 2) [Compound 131, 5,6-dichloro-1′-(2-hydroxyacetyl)-4′-methylspiro[indoline-3,3′-pyrrolidin]-2-one diastereoisomer 2] | > 6.00
20 | Nc1[nH]ncc1C(=O)N1CC[C@]2(C1)C(=O)Nc1cc(Cl)c(Cl)cc12 [Compound 70, (S)-1′-(5-amino-1H-pyrazole-4-carbonyl)-5,6-dichlorospiro[indoline-3,3′-pyrrolidin]-2-one] | > 5.52
21 | O=C1Nc2cc(Cl)c(Cl)cc2[C@]12CCN(c1c[nH]c(=O)cn1)C2 [Compound 145, (S)-5,6-dichloro-1′-(5-oxo-4,5-dihydropyrazin-2-yl)spiro[indoline-3,3′-pyrrolidin]-2-one] | > 6.00
22 | O=C([C@H](O)CO)N1CC[C@]2(C1)C(=O)Nc1cc(Cl)c(Cl)cc12 [Compound 159, (S)-5,6-dichloro-1′-((R)-2,3-dihydroxypropanoyl)spiro[indoline-3,3′-pyrrolidin]-2-one] | > 5.52
23 | Cc1cc(Cl)cc2c1NC(=O)[C@@]21CCN(C(=O)CO)C1 [Compound 140, (S)-5-chloro-1′-(2-hydroxyacetyl)-7-methylspiro[indoline-3,3′-pyrrolidin]-2-one] | > 6.00
24 | O=C(N1CC[C@]2(C1)C(=O)Nc1cc(Cl)c(Cl)cc12)[C@]1(F)CCNC1 (single isomer, unassigned; isomer 1) [Compound 28] | > 6.00
25 | O=C([C@@H]1[C@@H]2CN[C@H]1C2)N1CC[C@]2(C1)C(=O)Nc1cc(Cl)c(Cl)cc12 (single isomer, unassigned; isomer 2) [Compound 58] | > 6.00
26 | N[C@@H](CO)C(=O)N1CC[C@]2(C1)C(=O)Nc1cc(Cl)c(Cl)cc12 [Compound 36, (S)-1′-(L-Seryl)-5,6-dichlorospiro[indoline-3,3′-pyrrolidin]-2-one] | > 6.00
27 | O=C(c1cn[nH]c1CO)N1CC[C@]2(C1)C(=O)Nc1cc(Cl)c(Cl)cc12 [Compound 80, (S)-5,6-dichloro-1′-(5-(hydroxymethyl)-1H-pyrazole-4-carbonyl)spiro[indoline-3,3′-pyrrolidin]-2-one] | > 6.00
28 | O=C1Nc2cc(Cl)c(Cl)cc2[C@]12CCN(S(=O)(=O)CCO)C2 [Compound 138, (3S)-5,6-dichloro-1′-(2-hydroxyethanesulfonyl)-1H-spiro[indole-3,3′-pyrrolidin]-2-one] | > 6.00
29 | Nc1cc(N2CC[C@]3(C2)C(=O)Nc2cc(Cl)c(Cl)cc23)ncn1 [Compound 148, (S)-1′-(6-aminopyrimidin-4-yl)-5,6-dichlorospiro[indoline-3,3′-pyrrolidin]-2-one] | > 5.52
30 | O=C([C@H]1[C@@H]2CN[C@H]1C2)N1CC[C@]2(C1)C(=O)Nc1cc(Cl)c(Cl)cc12 (single isomer, unassigned; isomer 1) [Compound 57] | > 5.52
31 | C[C@H]1N(C(=O)CO)CCC12C(=O)Nc1cc(Cl)c(Cl)cc12 (single isomer, unassigned; diastereoisomer 2) [Compound 134, 5,6-dichloro-1′-(2-hydroxyacetyl)-2′-methylspiro[indoline-3,3′-pyrrolidin]-2-one diastereoisomer 2] | > 5.00
32 | NC(=O)N1CC[C@@]2(C1)C(=O)Nc1cc(Cl)c(Cl)cc12 (single isomer, unassigned) [Compound 155] | > 5.52
33 | O=C([C@H]1CC[C@@H](O)C1)N1CC[C@]2(C1)C(=O)Nc1cc(Cl)c(Cl)cc12 (single isomer, unassigned; isomer 3) [Compound 65] | > 5.52
34 | Cn1ccc(C(=O)N2CC[C@]3(C2)C(=O)Nc2cc(Cl)c(Cl)cc23)cc1=O [Compound 82, (S)-5,6-dichloro-1′-(1-methyl-2-oxo-1,2-dihydropyridine-4-carbonyl)spiro[indoline-3,3′-pyrrolidin]-2-one] | > 5.52
35 | O=C1Nc2cc(Cl)c(Cl)cc2[C@]12CCN(c1cnccn1)C2 [Compound 149, (S)-5,6-dichloro-1′-(pyrazin-2-yl)spiro[indoline-3,3′-pyrrolidin]-2-one] | > 5.52
